Test: xn = mol fraction of the nth substance listed
Conditions: 100 kPa, Liquid, Vibrating tube method

CCC(O)CC [3-pentanol] + C[N+](=O)[O-]
Conditions | mass density [kg/m3]
289.45 K, x1 = 0.363 | 996.016
289.45 K, x1 = 0.382 | 994.795
289.45 K, x1 = 0.407 | 994.989
289.45 K, x1 = 0.414 | 995.114
289.45 K, x1 = 0.486 | 977.635
289.45 K, x1 = 0.488 | 975.638
289.45 K, x1 = 0.546 | 951.819
289.45 K, x1 = 0.573 | 936.914
289.45 K, x1 = 0.587 | 923.684
289.45 K, x1 = 0.629 | 901.973
289.46 K, x1 = 0.615 | 903.573
289.55 K, x1 = 0.266 | 1011
289.55 K, x1 = 0.3 | 1005.09
289.55 K, x1 = 0.325 | 1000.44
289.55 K, x1 = 0.407 | 993.27
289.55 K, x1 = 0.486 | 976.784
289.55 K, x1 = 0.546 | 950.242
289.55 K, x1 = 0.573 | 934.004
289.55 K, x1 = 0.629 | 901.33
289.56 K, x1 = 0.246 | 1011.83
289.56 K, x1 = 0.275 | 1010.74
289.56 K, x1 = 0.338 | 998.17
289.56 K, x1 = 0.363 | 995.361
289.56 K, x1 = 0.382 | 993.579
289.56 K, x1 = 0.414 | 993.6
289.56 K, x1 = 0.488 | 974.397
289.56 K, x1 = 0.587 | 923.551
289.56 K, x1 = 0.615 | 903.035
289.65 K, x1 = 0.246 | 1010.76
289.65 K, x1 = 0.266 | 1009.81
289.65 K, x1 = 0.275 | 1009.82
289.65 K, x1 = 0.3 | 1004.38
289.65 K, x1 = 0.325 | 999.918
289.65 K, x1 = 0.363 | 994.656
289.65 K, x1 = 0.382 | 992.659
289.65 K, x1 = 0.407 | 991.642
289.65 K, x1 = 0.414 | 991.992
289.65 K, x1 = 0.486 | 975.844
289.65 K, x1 = 0.488 | 973.516
289.65 K, x1 = 0.546 | 949.056
289.65 K, x1 = 0.573 | 932.207
289.65 K, x1 = 0.587 | 923.409
289.65 K, x1 = 0.615 | 903.013
289.65 K, x1 = 0.629 | 896.019
289.66 K, x1 = 0.338 | 997.588
289.75 K, x1 = 0.246 | 1009.91
289.75 K, x1 = 0.266 | 1008.57
289.75 K, x1 = 0.275 | 1008.78
289.75 K, x1 = 0.3 | 1003.47
289.75 K, x1 = 0.325 | 999.093
289.75 K, x1 = 0.363 | 994.035
289.75 K, x1 = 0.382 | 991.551
289.75 K, x1 = 0.407 | 989.735
289.75 K, x1 = 0.414 | 990.174
289.75 K, x1 = 0.486 | 974.653
289.75 K, x1 = 0.488 | 972.561
289.75 K, x1 = 0.546 | 947.686
289.75 K, x1 = 0.573 | 929.383
289.75 K, x1 = 0.587 | 924.024
289.75 K, x1 = 0.615 | 902.898
289.76 K, x1 = 0.338 | 996.84
289.85 K, x1 = 0.266 | 1007.2
289.85 K, x1 = 0.275 | 1007.7
289.85 K, x1 = 0.3 | 1002.58
289.85 K, x1 = 0.325 | 998.305
289.85 K, x1 = 0.363 | 993.362
289.85 K, x1 = 0.382 | 990.377
289.85 K, x1 = 0.407 | 988.132
289.85 K, x1 = 0.414 | 988.452
289.85 K, x1 = 0.486 | 973.161
289.85 K, x1 = 0.488 | 971.375
289.85 K, x1 = 0.546 | 946.847
289.85 K, x1 = 0.573 | 928.807
289.85 K, x1 = 0.587 | 917.506
289.86 K, x1 = 0.246 | 1009.43
289.86 K, x1 = 0.338 | 996.331
289.86 K, x1 = 0.615 | 902.789
289.95 K, x1 = 0.266 | 1005.77
289.95 K, x1 = 0.275 | 1006.41

Reference: the NIST ThermoML archive (doi:10.1016/j.jct.2018.08.035)
